From patent US8247224B2, “Recombinant construct for detection of halogenated aromatic hydrocarbons” (National Health Research Institutes, priority 2010, dated 2012) come the findings set out here.

The test deals with T1, AhR (Rattus norvegicus, UniProt P41738).
T1 construct: introducing a recombinant construct as described above into a host cell that expresses AhR; endogenous in cells; host or cells: H-4-II-E cells infected with the AdEasy-4XDRE-TATA-Luc reporter adenovirus
T1 sequence (P41738 10-853): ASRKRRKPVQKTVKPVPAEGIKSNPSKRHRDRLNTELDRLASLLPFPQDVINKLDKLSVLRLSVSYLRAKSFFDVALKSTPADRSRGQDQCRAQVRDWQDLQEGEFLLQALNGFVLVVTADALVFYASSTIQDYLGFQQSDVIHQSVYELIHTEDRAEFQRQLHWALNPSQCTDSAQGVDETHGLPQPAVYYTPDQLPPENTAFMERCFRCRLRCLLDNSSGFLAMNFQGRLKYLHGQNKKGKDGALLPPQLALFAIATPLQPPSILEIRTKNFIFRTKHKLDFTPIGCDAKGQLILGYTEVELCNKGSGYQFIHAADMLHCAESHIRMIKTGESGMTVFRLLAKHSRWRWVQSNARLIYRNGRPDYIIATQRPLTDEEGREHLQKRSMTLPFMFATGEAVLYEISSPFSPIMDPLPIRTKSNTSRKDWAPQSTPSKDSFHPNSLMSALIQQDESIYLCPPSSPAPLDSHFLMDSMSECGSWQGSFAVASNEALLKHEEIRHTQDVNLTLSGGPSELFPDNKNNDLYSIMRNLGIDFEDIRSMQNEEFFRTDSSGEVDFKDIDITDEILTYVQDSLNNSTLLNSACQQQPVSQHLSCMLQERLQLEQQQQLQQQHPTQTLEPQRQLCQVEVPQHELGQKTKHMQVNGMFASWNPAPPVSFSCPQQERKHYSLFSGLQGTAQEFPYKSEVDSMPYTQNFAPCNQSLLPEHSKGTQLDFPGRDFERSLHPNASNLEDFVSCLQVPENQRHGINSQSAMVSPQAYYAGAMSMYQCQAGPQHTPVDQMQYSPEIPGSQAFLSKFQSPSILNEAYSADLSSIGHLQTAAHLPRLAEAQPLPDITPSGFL
Nature of the test: Luciferase activity of H-4-II-E cells infected with AdEasy-4XDRE-TATA-Luc and treated with TCDD. It counts as cell-based. The settings on record: AdEasy-4XDRE-TATA-Luc at MOI of one particles/cell for 16 hours, TCDD for 24 hours, luciferase activity (RLU), FIG. 6. From the text: As known in the art, the action of the HAH compounds is mediated through a cytosolic transcription factor, called the aryl hydrocarbon receptor (AhR). After binding of the ligand (HAH compounds), the resulted AhR complex binds to specific DNA sequences i.e. DREs, and then results in transcriptional activation of the adjacent responsive genes. The consensus sequence of the DREs is 5′-TNGCGTG-3′ where N means any nucleotide of A, T, G and C.
H-4-II-E cells (Bioresources Collection and Research Center (BCRC), Food Industry Research and Development Institute (FIRDI), Hsinchu, Taiwan) were seeded on 96-well plates at a density of 2×10^4 cells/well in culture medium (80% Minimum essential medium Eagle with 0.1 mM non-essential amino acids, Earle's BSS, 10% fetal bovine serum and 10% calf serum) and cultured overnight in a humidified atmosphere containing 5% CO2 at 37° C. Subsequently, the cells were incubated with AdEasy-4XDRE-TATA-Luc as obtained in Example 1 at a multiplicity of infection (MOI) of one particles/cell for 16 hours. […] Luciferase activity was measured by Luciferase Assay System (Promega, Madison, Wis., USA) according to the standard protocol as provided using the programmed microplate luminometer MicroLumatPlus LB96V (EG&G Berthold, Germany). The luciferase activity was expressed as relative light units (RLU).

As to `Clc1cc2c(cc1Cl)Oc1cc(Cl)c(Cl)cc1O2` [TCDD, 2,3,7,8-tetrachlorodibenzo-p-dioxin], the “concentrations between which the luciferase response shows a steep slope” value was 10^−12 to 10^−10 M and the detection limit result is reported as “around 10^−12 M”.
